Measurements published in the supplement of paper PMC13207355.

Experiments:
Conditions in all cases: exposure time: 72 h
[1] = test system: E28 (patient-derived glioblastoma stem cells of classical subtype); assay: surviving fraction (nuclei count normalised to DMSO); higher = more cells surviving (less toxic)
[2] = test system: E57 (patient-derived glioblastoma stem cells of mesenchymal subtype); assay: as above
[3] = test system: FT3469 (normal neural stem cell line); assay: as above
[4] = test system: E34 (patient-derived glioblastoma stem cells of proneural subtype); assay: as above
[5] = test system: E13 (patient-derived glioblastoma stem cells of classical subtype); assay: as above
[6] = test system: E21 (patient-derived glioblastoma stem cells of mesenchymal subtype); assay: as above
[7] = test system: E31 (patient-derived glioblastoma stem cells of proneural subtype); assay: as above
[8] = test system: E28; assay: phenotypic distance (Euclidean, principal components) from DMSO controls (arbitrary units); higher = stronger morphological change
[9] = test system: E57; assay: as above
[10] = test system: FT3469; assay: as above
[11] = test system: E34; assay: as above
[12] = test system: E13; assay: as above
[13] = test system: E21; assay: as above
[14] = test system: E31; assay: as above
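Throughout, for phenotypic distance (Euclidean, principal components) from DMSO controls: cell Painting imaging in 384-well plates, CellProfiler features reduced to at least 20 principal components, Euclidean distance versus same-plate DMSO vehicle wells (0.1% v/v), median over six images per well.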
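Throughout, for surviving fraction (nuclei count normalised to DMSO): nuclei counted by high-content imaging of Hoechst-stained cells in laminin-coated 384-well plates, relative to 0.1% DMSO vehicle wells, with staurosporine as cell-death control.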

COc1cccc2c1C(=O)c1c(O)c3c(c(O)c1C2=O)C[C@@](O)(C(=O)CO)C[C@@H]3O[C@H]1C[C@H](N)[C@H](O[C@@H]2CCCCO2)[C@H](C)O1 [Pirarubicin]
Conditions	phenotypic distance	surviving fraction
[1], 4.1 nM	–	0.322
[1], 12.3 nM	–	0.276
[1], 37 nM	–	0.244
[1], 111.1 nM	–	0.14
[1], 333.3 nM	–	0.347
[1], 1000 nM	–	0.209
[1], 3000 nM	–	0.0681
[2], 4.1 nM	–	0.226
[2], 12.3 nM	–	0.199
[2], 37 nM	–	0.176
[2], 111.1 nM	–	0.106
[2], 333.3 nM	–	0.126
[2], 1000 nM	–	0.122
[2], 3000 nM	–	0.0208
[3], 4.1 nM	–	0.631
[3], 12.3 nM	–	0.549
[3], 37 nM	–	0.534
[3], 111.1 nM	–	0.31
[3], 333.3 nM	–	0.381
[3], 1000 nM	–	0.354
[3], 3000 nM	–	0.144
[4], 4.1 nM	–	0.51
[4], 12.3 nM	–	0.559
[4], 37 nM	–	0.488
[4], 111.1 nM	–	0.527
[4], 333.3 nM	–	0.331
[4], 1000 nM	–	0.488
[4], 3000 nM	–	0.214
[5], 4.1 nM	–	0.384
[5], 12.3 nM	–	0.325
[5], 37 nM	–	0.263
[5], 111.1 nM	–	0.0805
[5], 333.3 nM	–	0.1
[5], 1000 nM	–	0.0786
[5], 3000 nM	–	0.0218
[6], 4.1 nM	–	0.251
[6], 12.3 nM	–	0.305
[6], 37 nM	–	0.194
[6], 111.1 nM	–	0.13
[6], 333.3 nM	–	0.0649
[6], 1000 nM	–	0.0703
[6], 3000 nM	–	0.0202
[7], 4.1 nM	–	0.141
[7], 12.3 nM	–	0.184
[7], 37 nM	–	0.101
[7], 111.1 nM	–	0.058
[7], 333.3 nM	–	0.107
[7], 1000 nM	–	0.0565
[7], 3000 nM	–	0.0104
[8], 4.1 nM	4.14	–
[8], 12.3 nM	4.17	–
[8], 37 nM	4.19	–
[8], 111.1 nM	5.37	–
[8], 333.3 nM	4.96	–
[8], 1000 nM	5.04	–
[8], 3000 nM	4.01	–
[9], 4.1 nM	7.85	–
[9], 12.3 nM	8.69	–
[9], 37 nM	8.43	–
[9], 111.1 nM	8.17	–
[9], 333.3 nM	5.64	–
[9], 1000 nM	5.25	–
[9], 3000 nM	7.33	–
[10], 4.1 nM	2.41	–
[10], 12.3 nM	2.29	–
[10], 37 nM	3.24	–
[10], 111.1 nM	6.3	–
[10], 333.3 nM	5.37	–
[10], 1000 nM	5.38	–
[10], 3000 nM	7.66	–
[11], 4.1 nM	3.49	–
[11], 12.3 nM	3.06	–
[11], 37 nM	2.17	–
[11], 111.1 nM	4.14	–
[11], 333.3 nM	2.6	–
[11], 1000 nM	3.14	–
[11], 3000 nM	5.46	–
[12], 4.1 nM	5.19	–
[12], 12.3 nM	5.1	–
[12], 37 nM	4.19	–
[12], 111.1 nM	5.27	–
[12], 333.3 nM	5.59	–
[12], 1000 nM	5.06	–
[12], 3000 nM	6.07	–
[13], 4.1 nM	5.11	–
[13], 12.3 nM	7.13	–
[13], 37 nM	6.25	–
[13], 111.1 nM	6.76	–
[13], 333.3 nM	7.24	–
[13], 1000 nM	6.47	–
[13], 3000 nM	9.02	–
[14], 4.1 nM	3.76	–
[14], 12.3 nM	3.17	–
[14], 37 nM	4.87	–
[14], 111.1 nM	6.24	–
[14], 333.3 nM	4.82	–
[14], 1000 nM	7.62	–
[14], 3000 nM	10.2	–

Cc1nc2ccccn2c(=O)c1CCN1CCC(C(=O)c2ccc(F)cc2)CC1 [Pirenperone]
Conditions	phenotypic distance	surviving fraction
[1], 4.1 nM	–	1.05
[1], 12.3 nM	–	0.977
[1], 37 nM	–	1.16
[1], 111.1 nM	–	0.995
[1], 333.3 nM	–	1.08
[1], 1000 nM	–	1.07
[1], 3000 nM	–	0.988
[2], 4.1 nM	–	1.07
[2], 12.3 nM	–	1.08
[2], 37 nM	–	1.08
[2], 111.1 nM	–	1.02
[2], 333.3 nM	–	1.03
[2], 1000 nM	–	1.03
[2], 3000 nM	–	0.881
[3], 4.1 nM	–	0.92
[3], 12.3 nM	–	0.976
[3], 37 nM	–	1.17
[3], 111.1 nM	–	1.11
[3], 333.3 nM	–	1.12
[3], 1000 nM	–	1.05
[3], 3000 nM	–	1.19
[4], 4.1 nM	–	1.22
[4], 12.3 nM	–	1.22
[4], 37 nM	–	1.06
[4], 111.1 nM	–	0.912
[4], 333.3 nM	–	0.91
[4], 1000 nM	–	1.01
[4], 3000 nM	–	1.15
[5], 4.1 nM	–	0.987
[5], 12.3 nM	–	1.07
[5], 37 nM	–	1.13
[5], 111.1 nM	–	1.14
[5], 333.3 nM	–	1.06
[5], 1000 nM	–	1.02
[5], 3000 nM	–	1.02
[6], 4.1 nM	–	1.08
[6], 12.3 nM	–	0.974
[6], 37 nM	–	1.12
[6], 111.1 nM	–	1.01
[6], 333.3 nM	–	1.11
[6], 1000 nM	–	1.12
[6], 3000 nM	–	0.984
[7], 4.1 nM	–	1.02
[7], 12.3 nM	–	0.878
[7], 37 nM	–	0.945
[7], 111.1 nM	–	0.874
[7], 333.3 nM	–	0.886
[7], 1000 nM	–	0.857
[7], 3000 nM	–	0.912
[8], 4.1 nM	0.892	–
[8], 12.3 nM	0.572	–
[8], 37 nM	0.636	–
[8], 111.1 nM	0.966	–
[8], 333.3 nM	0.52	–
[8], 1000 nM	0.489	–
[8], 3000 nM	0.806	–
[9], 4.1 nM	0.572	–
[9], 12.3 nM	0.766	–
[9], 37 nM	2.84	–
[9], 111.1 nM	0.668	–
[9], 333.3 nM	0.553	–
[9], 1000 nM	0.431	–
[9], 3000 nM	1.17	–
[10], 4.1 nM	0.618	–
[10], 12.3 nM	0.837	–
[10], 37 nM	0.619	–
[10], 111.1 nM	0.898	–
[10], 333.3 nM	0.764	–
[10], 1000 nM	0.995	–
[10], 3000 nM	1.03	–
[11], 4.1 nM	0.796	–
[11], 12.3 nM	0.78	–
[11], 37 nM	0.668	–
[11], 111.1 nM	0.579	–
[11], 333.3 nM	0.636	–
[11], 1000 nM	0.719	–
[11], 3000 nM	0.659	–
[12], 4.1 nM	0.486	–
[12], 12.3 nM	0.42	–
[12], 37 nM	0.709	–
[12], 111.1 nM	0.86	–
[12], 333.3 nM	0.944	–
[12], 1000 nM	0.709	–
[12], 3000 nM	2.42	–
[13], 4.1 nM	1	–
[13], 12.3 nM	0.656	–
[13], 37 nM	0.874	–
[13], 111.1 nM	0.825	–
[13], 333.3 nM	0.769	–
[13], 1000 nM	0.729	–
[13], 3000 nM	0.884	–
[14], 4.1 nM	0.618	–
[14], 12.3 nM	0.402	–
[14], 37 nM	0.608	–
[14], 111.1 nM	0.551	–
[14], 333.3 nM	0.266	–
[14], 1000 nM	0.44	–
[14], 3000 nM	0.761	–
